Source: publication PMC3767324, “Synthesis, Characterization, and BSA Binding Studies of Some New Benzamides Related to Schiff Base” (ISRN Organic Chemistry, 2013)
In brackets after ≈: the same amount, converted by molar mass.

Tests used:
[1] = system: A. niger; test: agar disc diffusion, zone of inhibition; assay type: cell-based; conditions: Aspergillus niger; A. niger; discs 6 mm, test compounds 100 µg/mL in DMSO, standards 10 µg/disc; 28°C 48 h; average of three replicates; read-out: zone of inhibition
Procedure: [The procedure below names another organism; the source lists this organism under the same test.] (§1) The in vitro antimicrobial screening effects of the compounds (3 and 5a–j) were individually tested against a panel of bacteria and fungi including Staphylococcus aureus (NCIM 5021), Bacillus subtilis (NCIM 2999), Pseudomonas aeruginosa (NCIM 5029), Escherichia coli (NCIM 2574), Candida. albicans (NCIM 3471), and Aspergillus flavus (NCIM 524). Microbial strains were cultured overnight at 37°C in nutrient and potato dextrose agar medium. All the pure microbial strains were obtained from National Chemical Laboratory (NCL), Pune, India.
(§2) The antibacterial activity of compounds was determined by agar disc diffusion method. Briefly, a suspension of tested bacterial strains was spread on the nutrient agar medium and potato dextrose agar for fungi. The discs (6 mm in diameter) impregnated with test chemicals each dissolved in concentration (100 μg/mL in DMSO) were placed on the inoculated agar and these plates were kept at 4°C for 2 h. The plate was incubated at 37°C for 24 h in case of bacteria and 48 h at 28°C in case of fungi. streptomycin (10 μg/disc) and fluconazole (10 μg/disc) were used as the standards for antibacterial and antifungal activity, respectively. All the samples were performed in triplicate and the zone of inhibition was measured in millimeters.

[2] = system: Aspergillus flavus (NCIM 524); test: agar disc diffusion, zone of inhibition; assay type: cell-based; conditions: Aspergillus flavus, NCIM524; A. flavus; discs 6 mm, test compounds 100 µg/mL in DMSO, standards 10 µg/disc; 28°C 48 h; average of three replicates; read-out: zone of inhibition
Procedure: as §1, §2

[3] = system: Bacillus subtilis (NCIM 2999); test: agar disc diffusion, zone of inhibition; assay type: cell-based; conditions: Bacillus subtilis, NCIM2999; B. subtilis; discs 6 mm, test compounds 100 µg/mL in DMSO, standards 10 µg/disc; 37°C 24 h; average of three replicates; read-out: zone of inhibition
Procedure: as §1, §2

[4] = system: Escherichia coli (NCIM 2574); test: agar disc diffusion, zone of inhibition; assay type: cell-based; conditions: Escherichia coli, NCIM2574; E. coli; discs 6 mm, test compounds 100 µg/mL in DMSO, standards 10 µg/disc; 37°C 24 h; average of three replicates; read-out: zone of inhibition
Procedure: as §1, §2

[5] = system: Pseudomonas aeruginosa (NCIM 5029); test: agar disc diffusion, zone of inhibition; assay type: cell-based; conditions: Pseudomonas aeruginosa, NCIM5029; P. aeruginosa; discs 6 mm, test compounds 100 µg/mL in DMSO, standards 10 µg/disc; 37°C 24 h; average of three replicates; read-out: zone of inhibition
Procedure: as §1, §2

[6] = system: Staphylococcus aureus (NCIM 5021); test: agar disc diffusion, zone of inhibition; assay type: cell-based; conditions: Staphylococcus aureus, NCIM5021; S. aureus; discs 6 mm, test compounds 100 µg/mL in DMSO, standards 10 µg/disc; 37°C 24 h; average of three replicates; read-out: zone of inhibition
Procedure: as §1, §2

[7] = system: A. niger; test: minimum inhibitory concentration by dilution method; assay type: cell-based; conditions: Aspergillus niger; A. niger; dilution method; average of three replicates; read-out: MIC
Procedure: [The procedure below names another organism; the source lists this organism under the same test.] as §1
(§3) The minimum inhibitory concentration of the synthesized compounds was determined by dilution method. The compounds were dissolved and then diluted using DMSO; two-fold serial concentrations of the compounds were employed to determine the MIC. In this method, the test concentrations of chemically synthesized compounds were made from 5 to 125 μg/mL.

[8] = system: Aspergillus flavus (NCIM 524); test: as above; assay type: cell-based; conditions: Aspergillus flavus, NCIM524; A. flavus; dilution method; average of three replicates; read-out: MIC
Procedure: as §1, §3

[9] = system: Bacillus subtilis (NCIM 2999); test: as above; assay type: cell-based; conditions: Bacillus subtilis, NCIM2999; B. subtilis; dilution method; average of three replicates; read-out: MIC
Procedure: as §1, §3

[10] = system: Escherichia coli (NCIM 2574); test: as above; assay type: cell-based; conditions: Escherichia coli, NCIM2574; E. coli; dilution method; average of three replicates; read-out: MIC
Procedure: as §1, §3

[11] = system: Pseudomonas aeruginosa (NCIM 5029); test: as above; assay type: cell-based; conditions: Pseudomonas aeruginosa, NCIM5029; P. aeruginosa; dilution method; average of three replicates; read-out: MIC
Procedure: as §1, §3

[12] = system: Staphylococcus aureus (NCIM 5021); test: as above; assay type: cell-based; conditions: Staphylococcus aureus, NCIM5021; S. aureus; dilution method; average of three replicates; read-out: MIC
Procedure: as §1, §3

[13] = DPPH free radical scavenging activity; conditions: DPPH 0.1 mM, absorbance at 517 nm; triplicate, mean ± SD
Procedure: The capacity to scavenge the stable free radical 2,2-diphenyl-1-picrylhydrazyl (DPPH) was monitored according to the Blois method. The test samples (10–100 μL) were mixed with 1 mL of DPPH (0.1 mM) solution and filled up with methanol to a final volume of 4 mL. Absorbance of the resulting solution was measured at 517 nm in a visible spectrophotometer (Model 166, Systronics, India). The free radical scavenging rate of the reaction solution was calculated as a percentage (%) of DPPH decolouration using the equation (1) I(%)=(Ablank−Asample/Ablank)×100, where A blank is the absorbance of the control reaction mixture excluding the test compounds, and A sample is the absorbance of the test compounds. Radical scavenging potential was expressed as IC50 value, which represents the sample concentration at which 50% of the DPPH radicals were scavenged. Tests were carried out in triplicate and the results were expressed as mean values ± standard deviations.
DPPH radical scavenging activity evaluation is a standard assay in antioxidant activity studies and offers a rapid technique for screening the radical scavenging activity of specific compounds [24]. The free radical scavenging activity of newly synthesized compounds was tested by their ability to bleach the stable radical DPPH. The activity was monitored by following the absorption at 517 nm in a visible spectrophotometer. In the presence of any free radical scavenger, this odd electron pairs up and causes the diminishing of absorption band which is proportional to the number of electrons taken up. The activity was studied at different concentrations for each compound. […] Resulting from a color change from purple to yellow the absorbance decreased when the antioxidant molecule can quench DPPH free radical through donation of hydrogen atom or by electron donating to form a stable DPPH molecule.

[14] = superoxide radical scavenging assay (NBT, xanthine-xanthine oxidase system); assay type: biochemical; conditions: NBT reduction, pH 7.8, 560 nm, three replicates
Procedure: Superoxide radical scavenging activity was measured as described by Kovala-Demertzi et al., (2004). The assay is based on the reduction of nitroblue tetrazolium (NBT) by superoxide ions generated by the xanthine-xanthine oxidase system (X–XO). The reaction system contained 0.2 mM xanthine and 0.6 mM NBT in 0.1 M phosphate buffer, pH 7.8. The tested compounds were dissolved in methanol. The reaction was started by addition of XO (0.07 U mL^−1), an activity which allowed to yield the absorbance change between 0.03 and 0.04 per minute, at 560 nm. The extent of NBT reduction was followed spectrophotometrically, by measuring the increase of the absorbance at 560 nm. All the experiments were replicated three times. The IC50 of each compound was defined as the concentration which inhibited 50% of the NBT reduction by O2 ^•− produced in the X–XO system.
Superoxide anion radical is normally initially formed, and its effects can be magnified because it produces other kinds of free radicals and oxidizing agents. The enzymatic superoxide anion radical was generated by the xanthine/xanthine oxidase reaction system. The production of superoxide was estimated by the nitroblue tetrazolium method. […] Differently, in the m-position, methoxy and hydroxyl groups act as an electron-withdrawing properties, ([…]), which are possible for providing a destabilizing effect.

MIC [7]: 25 µg/mL (≈ 63.1 µM) | MIC [8]: 25 µg/mL (≈ 63.1 µM) | MIC [9]: 30 µg/mL (≈ 75.7 µM) | MIC [10]: 50 µg/mL (≈ 126 µM) | MIC [11]: 30 µg/mL (≈ 75.7 µM) | MIC [12]: 50 µg/mL (≈ 126 µM) | IC50 DPPH [13]: 85.3 ± 0.14 µg/mL (≈ 215 µM) | IC50 Superoxide [14]: 92.0 ± 0.35 µg/mL (≈ 232 µM) | melting point: 193 °C
Structure (SMILES): CC(=O)N(C(=O)Cc1ccccc1)c1ccc(N=Cc2cc3ccccc3o2)cc1 [Compound 5b, N-acetyl-N-(4-((benzofuran-2-ylmethylene)amino)phenyl)-2-phenylacetamide]
zone of inhibition at 100 µg/mL [1]: 12 mm | zone of inhibition at 100 µg/mL [2]: 15 mm | zone of inhibition at 100 µg/mL [3]: 10 mm | zone of inhibition at 100 µg/mL [4]: 10 mm | zone of inhibition at 100 µg/mL [5]: 11 mm | zone of inhibition at 100 µg/mL [6]: 10 mm
